Laboratory results from US9227977B2, “Phosphoinositide 3-kinase inhibitors” (RESPIVERT LTD., priority 2013, dated 2016).
pIC50: −log10 of the molar value. Like-named read-outs stand apart in the source and are kept apart here.

What was measured:
[1] = molecular target: PI3K β (Homo sapiens (Human), UniProt P42338); test: PI3K enzyme inhibition assay (HTRF TR-FRET); format: biochemical
From the text: The PI3K enzymes catalyse the phosphorylation of phosphatidylinositol 4,5-biphosphate (PIP2) to phosphatidylinositol 3,4,5-triphosphate (PIP3) in the presence of ATP and Mg^2+ ions. The PIP3 product can be detected by displacement of biotin-PIP3 from energy transfer complexes consisting of europium labelled anti-GST monoclonal antibody, a GST-tagged Pleckstrin homology (PH) domain, biotinylated PIP3 and streptavidin-allophycocyanin (APC) by the time-resolved fluorescence resonance energy transfer (TR-FRET) (HTRF®PI3K enzyme assay, Millipore). Excitation, at 330 nm, of europium in the complex results in an energy transfer to the APC and a fluorescent emission at 665 nm although europium itself emits at its characteristic wavelength of 620 nm. The PIP3 product formed by PI3K activity displaces biotin-PIP3 from the complex and results in a loss of energy transfer (decreasing signal).
The compound to be tested was added, at the desired final concentrations, to a mixture of PIP2 substrate and a recombinant PI3K enzyme (either α, β or δ isoforms, ex Millipore, or γ isoform [p110γ+p101 construct], ex United States Biological, Swampscott, Mass.) and the mixture incubated for 2 hr at RT. Following this incubation period, ATP (10 μM) was added to the enzyme/compound/PIP2 substrate mixture and the resulting mixture was incubated for a further 30 min at RT. A stopping solution containing biotinylated PIP3 and the detection mix containing the GST tagged GRP1 pleckstrin homology (PH) domain and fluorophores were then added and the mixture was incubated at RT for 15-18 hr, prior to detection in a fluorescence microplate reader (Synergy 4, BioTek UK, Bedfordshire, UK).
The results were calculated according to the formula: APC signal (emission at 665 nm)/europium signal (emission at 620 nm)×10^4. The percentage inhibition of each reaction was calculated relative to DMSO treated control, and the 50% inhibitory concentration (IC50 value) then calculated from the concentration-response curve.

[2] = tested on: cigarette smoke-induced cell accumulation and biomarkers in murine BALF; test: Cigarette smoke model; format: in vivo, mouse; details: for % inhibition, Macrophages in BAL / % inhibition, Neutrophils in BAL / Cell numbers in BAL, Macrophages / Cell numbers in BAL, Neutrophils: mice, CS, intra-nasal; for Cell numbers in BAL, Macrophages / Cell numbers in BAL, Neutrophils: mean ± SEM; for Inhibition (%) of CXCL1 in BALF / Inhibition (%) of IL-17 in BALF / Inhibition (%) of MCP-1 in BALF / Inhibition (%) of MDA in BALF / Inhibition (%) of Osteopontin in BALF / Inhibition (%) of TNF α in BALF: with respect to tobacco
Protocol: A/J mice (males, 5 weeks old) were exposed to cigarette smoke (4% cigarette smoke, diluted with compressed air) for 30 min/day for 11 days using a Tobacco Smoke Inhalation Experiment System for small animals (Model SIS-CS; Sibata Scientific Technology, Tokyo, Japan). Test substances were administered once daily for 3 days after the final cigarette smoke exposure (intra-nasal dose comprising 35 μL of solution in 50% DMSO/isotonic saline).
At 12 hr after administration of the last dose, animals were anesthetized, the trachea was cannulated and bronchial alveolar lavage (BAL) was carried out by the instillation into and then withdawal from the lungs, of PBS (100 mL/kg). Total cell numbers in the BALF samples were measured using a haemocytometer under a phase-contrast microscope. The proportions of alveolar macrophages and neutrophils were determined by FACS analysis using anti-mouse MOMA2-FITC (macrophage) or anti-mouse 7/4 (neutrophil).
Cells were suspended in PBS and were incubated with anti-MOMA2-FITC (2 μg/mL, Catalogue no SM065F, Acris Antibodies GmbH, Herford, Germany) or anti-7/4-FITC (2 μg/mL, Catalogue no CL050F, Acris Antibodies GmbH, Herford, Germany) for 30 min at 30° C., and also counterstained with propidium iodide (2 μg/mL) to allow exclusion of necrotic cells. The cells were washed with PBS, and transferred to FACS tubes. Samples was set in a flow cytometer (ALTRA II; Beckman Coulter Japan, Tokyo, Japan), and a single-parameter FL2 [PMT2] (FITC) histogram with log x-axis was plotted to illustrate relative intensity of FITC.
Data files are stored for subsequent analysis using Kaluza analysis software (ver. 1.2) to calculate the proportion of each cell type. The levels of CXCL1(KC), MCP1, TNFα, IL-17 or osteopontin in BALF were determined using Quentikine® mouse KC, MCP1, TNFα, IL-17 or osteopontin ELISA kit (R&D systems, Inc., Minneapolis, Minn., USA). The presence of malondialdehyde was measured using OxiSelect® TBARS Assay Kit (MDA Quantitation; Cell Biolabs Inc, San Diego, Calif., USA).

PI3K β, sequence (P42338 whole entry, species assumed): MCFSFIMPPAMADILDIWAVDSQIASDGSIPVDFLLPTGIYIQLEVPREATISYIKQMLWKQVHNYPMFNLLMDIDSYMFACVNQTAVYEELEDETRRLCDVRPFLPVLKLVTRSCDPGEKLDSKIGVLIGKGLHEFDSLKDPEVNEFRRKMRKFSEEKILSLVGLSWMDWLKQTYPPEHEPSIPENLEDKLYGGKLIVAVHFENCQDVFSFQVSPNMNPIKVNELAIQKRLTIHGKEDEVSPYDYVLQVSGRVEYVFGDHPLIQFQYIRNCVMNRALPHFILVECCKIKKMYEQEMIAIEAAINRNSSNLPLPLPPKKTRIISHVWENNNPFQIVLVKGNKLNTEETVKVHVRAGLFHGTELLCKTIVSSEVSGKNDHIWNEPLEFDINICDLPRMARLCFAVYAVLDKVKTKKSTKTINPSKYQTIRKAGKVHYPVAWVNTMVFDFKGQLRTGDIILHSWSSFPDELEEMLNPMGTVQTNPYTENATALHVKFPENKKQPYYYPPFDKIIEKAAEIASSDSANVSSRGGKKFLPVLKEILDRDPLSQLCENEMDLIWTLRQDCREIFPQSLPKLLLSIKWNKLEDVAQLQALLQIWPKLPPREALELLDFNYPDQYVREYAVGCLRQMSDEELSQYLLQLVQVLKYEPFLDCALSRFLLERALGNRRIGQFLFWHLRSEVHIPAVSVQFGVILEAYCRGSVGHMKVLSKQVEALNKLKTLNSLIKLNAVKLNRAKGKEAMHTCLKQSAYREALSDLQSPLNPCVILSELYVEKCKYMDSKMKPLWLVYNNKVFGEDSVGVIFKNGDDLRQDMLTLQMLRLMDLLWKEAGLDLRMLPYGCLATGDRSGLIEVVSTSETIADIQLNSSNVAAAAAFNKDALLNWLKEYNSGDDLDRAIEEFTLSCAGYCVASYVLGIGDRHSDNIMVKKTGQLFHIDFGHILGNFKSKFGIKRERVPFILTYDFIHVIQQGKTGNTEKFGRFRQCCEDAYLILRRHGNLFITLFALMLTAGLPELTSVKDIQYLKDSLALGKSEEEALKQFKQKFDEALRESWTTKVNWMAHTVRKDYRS
PI3K β, sequence (P27986 whole entry partner, species assumed): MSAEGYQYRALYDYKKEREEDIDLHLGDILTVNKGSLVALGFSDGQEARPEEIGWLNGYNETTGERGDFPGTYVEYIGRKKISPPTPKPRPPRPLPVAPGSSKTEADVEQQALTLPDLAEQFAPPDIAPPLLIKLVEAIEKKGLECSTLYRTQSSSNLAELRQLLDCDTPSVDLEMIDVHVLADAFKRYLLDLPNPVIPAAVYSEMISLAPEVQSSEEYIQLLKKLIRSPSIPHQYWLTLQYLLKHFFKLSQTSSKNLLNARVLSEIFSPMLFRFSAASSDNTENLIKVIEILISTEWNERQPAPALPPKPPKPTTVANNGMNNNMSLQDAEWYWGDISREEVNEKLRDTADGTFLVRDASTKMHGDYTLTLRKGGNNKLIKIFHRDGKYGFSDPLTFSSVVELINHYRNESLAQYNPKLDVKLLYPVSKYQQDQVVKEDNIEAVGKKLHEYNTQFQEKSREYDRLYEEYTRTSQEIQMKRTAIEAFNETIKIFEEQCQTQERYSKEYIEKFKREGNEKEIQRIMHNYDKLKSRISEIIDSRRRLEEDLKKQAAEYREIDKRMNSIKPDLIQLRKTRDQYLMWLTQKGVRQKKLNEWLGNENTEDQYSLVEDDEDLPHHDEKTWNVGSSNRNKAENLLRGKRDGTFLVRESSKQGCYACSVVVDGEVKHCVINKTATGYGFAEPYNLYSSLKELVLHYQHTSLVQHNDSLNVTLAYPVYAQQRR

COCCOCCOCC#Cc1cccc2nc(Cn3nc(-c4cc(O)cc(F)c4)c4c(N)ncnc43)n(Cc3ccccc3C(F)(F)F)c(=O)c12 [Compound (I), 2-((4-Amino-3-(3-fluoro-5-hydroxyphenyl)-1H-pyrazolo[3,4-d]pyrimidin-1-yl)methyl)-5-(3-(2-(2-methoxyethoxy)ethoxy)prop-1-yn-1-yl)-3-(2-(trifluoromethyl)benzyl)quinazolin-4(3H)-one]
inhibitory activity versus PI3K β in enzyme assays (in words) [1]: low inhibitory activity | pIC50 ([1]; read-out: IC50 Values for PI3K inhibition at isozyme indicated, PI3K β): 5.31 | pIC50 ([1]; read-out: PI3 Kinase Inhibition IC50 value at state isozyme, β): 5.31 | potency versus compound A on cigarette-smoke induced cell accumulation in murine BALF (in words) ([2]; contemporaneous study): more potent inhibitor | % inhibition, Macrophages in BAL ([2]; 0.02 mg/mL): 32% | % inhibition, Neutrophils in BAL ([2]; 0.02 mg/mL): 26% | Cell numbers in BAL, Macrophages ([2]; 0.02 mg/mL): 13.6 ± 0.2 x10^4/mL | Cell numbers in BAL, Neutrophils ([2]; 0.02 mg/mL): 8.6 ± 0.2 x10^4/mL | % inhibition, Macrophages in BAL ([2]; 0.2 mg/mL): 63% | % inhibition, Neutrophils in BAL ([2]; 0.2 mg/mL): 54% | Cell numbers in BAL, Macrophages ([2]; 0.2 mg/mL): 9.5 ± 0.2 x10^4/mL | Cell numbers in BAL, Neutrophils ([2]; 0.2 mg/mL): 6.0 ± 0.1 x10^4/mL | % inhibition, Macrophages in BAL ([2]; 2 mg/mL): 79% | % inhibition, Neutrophils in BAL ([2]; 2 mg/mL): 68% | Cell numbers in BAL, Macrophages ([2]; 2 mg/mL): 7.4 ± 0.3 x10^4/mL | Cell numbers in BAL, Neutrophils ([2]; 2 mg/mL): 4.6 ± 0.1 x10^4/mL | Inhibition (%) of CXCL1 in BALF ([2]; Compound (I) 0.02 mg/mL): 32% | Inhibition (%) of IL-17 in BALF ([2]; Compound (I) 0.02 mg/mL): 27% | Inhibition (%) of MCP-1 in BALF ([2]; Compound (I) 0.02 mg/mL): 28% | Inhibition (%) of MDA in BALF ([2]; Compound (I) 0.02 mg/mL): 25% | Inhibition (%) of Osteopontin in BALF ([2]; Compound (I) 0.02 mg/mL): 22% | Inhibition (%) of TNF α in BALF ([2]; Compound (I) 0.02 mg/mL): 22% | Inhibition (%) of CXCL1 in BALF ([2]; Compound (I) 0.2 mg/mL): 52% | Inhibition (%) of IL-17 in BALF ([2]; Compound (I) 0.2 mg/mL): 41% | Inhibition (%) of MCP-1 in BALF ([2]; Compound (I) 0.2 mg/mL): 45% | Inhibition (%) of MDA in BALF ([2]; Compound (I) 0.2 mg/mL): 42% | Inhibition (%) of Osteopontin in BALF ([2]; Compound (I) 0.2 mg/mL): 44% | Inhibition (%) of TNF α in BALF ([2]; Compound (I) 0.2 mg/mL): 38% | Inhibition (%) of CXCL1 in BALF ([2]; Compound (I) 2 mg/mL): 71% | Inhibition (%) of IL-17 in BALF ([2]; Compound (I) 2 mg/mL): 60% | Inhibition (%) of MCP-1 in BALF ([2]; Compound (I) 2 mg/mL): 78% | Inhibition (%) of MDA in BALF ([2]; Compound (I) 2 mg/mL): 64% | Inhibition (%) of Osteopontin in BALF ([2]; Compound (I) 2 mg/mL): 63% | Inhibition (%) of TNF α in BALF ([2]; Compound (I) 2 mg/mL): 62%
